Patent EP4610269A1, “UROKINASE PLASMINOGEN ACTIVATOR SURFACE RECEPTOR (UPAR) LIGANDS FOR DIAGNOSTIC OR THERAPEUTIC USE” (3B Pharmaceuticals GmbH, priority 2024, dated 2025)
Where a SMILES comes first, the peptide text is derived from it. Bridges are numbered along the chain shown (N, C = ends). [ ]: non-standard residue; d: D form. The star is where a group is joined. DOTA = O=C(O)CN1CCN(CC(=O)O)CCN(CC(=O)*)CCN(CC(=O)O)CC1; Phe(4-CONH2) = NC(=O)c1ccc(C[C@H](N)C(=O)O)cc1; Pro(cis-4-F) = O=C(O)[C@@H]1C[C@H](F)CN1; Hyp = O=C(O)[C@@H]1C[C@@H](O)CN1; Pentanoyl(4-Me) = CC(C)CCC(=O)*; Cit = NC(=O)NCCC[C@H](N)C(=O)O; Butoxycarbonyl = CCCCOC(=O)*; Orn = NCCC[C@H](N)C(=O)O; Nva = CCC[C@H](N)C(=O)O; Pentanoyl = CCCCC(=O)*

What was measured:
Assay type in all cases: in vitro ADME
[1] = Plasma stability assay (mouse plasma); settings: mouse plasma (sodium citrate 3.7%), 37°C, LC-MS quantification, read-out: % intact compound remaining after 6h incubation Mouse plasma
Method in brief: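 Compound from a 0.5 mM DMSO stock was spiked into sodium-citrate human or mouse plasma and incubated at 37°C for 0 and 6 h in duplicate. After protein precipitation with internal standard, intact compound was quantified by UHPLC-Q-TOF MS (positive ESI) against matrix calibration, reported as % remaining after 6 h.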

[2] = molecular target: T1, Recombinant soluble human NEP (Homo sapiens, UniProt P08473); test: Proteolytic stability assay against NEP; settings: recombinant soluble human NEP, human NEP 100 ng/mL, compound 10 µM, 37°C, LC-MS quantification, read-out: % intact compound remaining after 24h incubation
T1 construct: Recombinant soluble human NEP; purchased BioTechne, Wiesbaden, Germany
Procedure: To assess the stability of compounds against NEP, the compounds were subjected to an in vitro assay based on the protocol described by Edelson et al. (Edelson, Makhlina et al. 2013).
Recombinant soluble human NEP (BioTechne, Wiesbaden, Germany) at a concentration of 100 ng/mL was mixed with the compound (10 µM) and a stable internal standard (10 µM) and incubated at 37°C. After several time points, samples were taken and analyzed with LC-MS.
The determination of the analyte in the clean sample solutions was performed on an Agilent 1290 UHPLC system coupled to an Agilent 6530 Q-TOF mass spectrometer. The chromatographic separation was carried out on a Phenomenex BioZen XB-C18 HPLC column (50 × 2 mm, 1.7 µm particle size) with gradient elution using a mixture of 0.1% formic acid in water as eluent A and acetonitrile as eluent B (2% B to 41% in 7 min, 800 µl/min, 40°C). Mass spectrometric detection was performed in positive ion ESI mode by scanning the mass range from m/z 50 to 3000 with a sampling rate of 2 / sec.
From the mass spectrometric raw data the ion currents for the double or triple charged monoisotopic signal was extracted for both, the compound and the internal standard.
(§1) Quantitation was performed by external matrix calibration with internal standard using the integrated analyte signals.
The activity of NEP was examined using a commercially available chromogenic substrate of NEP.
The result is stated as "% intact compound remaining after 24 h incubation" and means that from the amount of material at the start of the experiment the stated percentage is detected as unchanged material at the end of the experiment by LC-MS quantification. Since all compounds are more than 50% intact after 24 h they are considered as stable enough for diagnostic and therapeutic applications. Table 14: Results of the NEP stability assay

[3] = Plasma stability assay (human plasma); settings: human plasma (sodium citrate 3.7%), 37°C, LC-MS quantification, read-out: % intact compound remaining after 6h incubation Human plasma
Procedure: In order to determine the stability of selected compounds of the invention in human and mouse plasma, a plasma stability assay was carried out. Such plasma stability assay measures degradation of compounds of the present invention in blood plasma. This is an important characteristic of a compound as compounds, with the exception of pro-drugs, which rapidly degrade in plasma, generally show poor in vivo efficacy. […] The stability is sufficient for the diagnostic, therapeutic and theragnostic use of these compounds according to the present invention.
The plasma stability samples were prepared by spiking 50 µl plasma aliquots (all sodium citrate 3.7%) with 1 µl of a 0.5 mM compound stock solution in DMSO. After vortexing the samples were incubated in a Thermomixer at 37°C for 0 and 6 hours. After incubation the samples were stored on ice until further treatment. All samples were prepared in duplicates.
A suitable internal standard was added to each sample (1 µl of a 0.5 mM stock solution in DMSO). Protein precipitation was performed using two different methods depending on the compound conditions as indicated in Table 13. • A) 250 µl of acetonitrile containing 1% trifluoroacetic acid was added. […]
as §1
Additionally, recovery was determined by spiking a pure plasma sample that only contained the internal standard after treatment with a certain amount of the compound.
Carry-over was evaluated by analysis of a blank sample (20% acetonitrile) after the highest calibration sample.
The result is stated as "% intact compound remaining after 6 h incubation" and means that from the amount of material at the start of the experiment the stated percentage is detected as unchanged material at the end of the experiment by LC-MS quantification. […]

T1 sequence (P08473 52-750 limits assumed): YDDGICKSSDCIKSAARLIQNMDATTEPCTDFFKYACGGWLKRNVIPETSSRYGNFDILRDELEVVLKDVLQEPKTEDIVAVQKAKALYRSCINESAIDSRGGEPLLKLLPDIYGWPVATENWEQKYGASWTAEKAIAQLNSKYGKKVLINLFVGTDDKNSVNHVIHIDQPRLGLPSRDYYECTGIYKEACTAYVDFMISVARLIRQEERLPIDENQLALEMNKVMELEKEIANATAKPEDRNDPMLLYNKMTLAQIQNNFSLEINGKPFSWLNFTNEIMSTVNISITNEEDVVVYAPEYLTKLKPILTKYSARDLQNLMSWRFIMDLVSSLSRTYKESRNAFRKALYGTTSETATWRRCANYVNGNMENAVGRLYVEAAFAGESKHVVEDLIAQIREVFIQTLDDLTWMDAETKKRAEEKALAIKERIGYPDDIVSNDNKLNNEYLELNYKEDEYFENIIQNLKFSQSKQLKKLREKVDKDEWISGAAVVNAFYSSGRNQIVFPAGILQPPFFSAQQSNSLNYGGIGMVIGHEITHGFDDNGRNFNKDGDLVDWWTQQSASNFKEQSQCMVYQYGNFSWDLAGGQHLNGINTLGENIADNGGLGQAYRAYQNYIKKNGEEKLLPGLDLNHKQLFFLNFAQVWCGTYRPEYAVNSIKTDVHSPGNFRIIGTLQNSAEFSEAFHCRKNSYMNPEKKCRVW

For `CCCCC(=O)N[C@H]1CSSC[C@@H](C(N)=O)NC(=O)[C@H](CCC)NC(=O)[C@H]([C@@H](C)CC)NC(=O)[C@@H]2C[C@@H](O)CN2C(=O)[C@@H]2CCCN2C(=O)[C@H](Cc2ccccc2)NC(=O)[C@H](Cc2ccc(O)cc2)NC(=O)[C@H](CCCCNC(=O)CN2CCN(CC(=O)O)CCN(CC(=O)O)CCN(CC(=O)O)CC2)NC(=O)[C@H](CCCNC(N)=O)NC1=O` [UPAR-261, Pent-[Cys-Cit-Lys(DOTA)-Tyr-Phe-Pro-Hyp-Ile-Nva-Cys]-NH2] (Pentanoyl-C[Cit]K(DOTA)YFP[Hyp]I[Nva]C-NH2; disulfide 1-10), the remaining at 6 h, 9.8 µM [1] was 82% and the remaining at 24 h, 10 µM [2] was 86%.
`CC[C@H](C)[C@@H]1NC(=O)[C@@H]2CCCN2C(=O)[C@@H]2CCCN2C(=O)[C@H](Cc2ccccc2)NC(=O)[C@H](Cc2ccc(O)cc2)NC(=O)[C@H](CCCCNC(=O)CN2CCN(CC(=O)O)CCN(CC(=O)O)CCN(CC(=O)O)CC2)NC(=O)[C@H](CCCNC(N)=O)NC(=O)[C@@H](NC(=O)CCC(C)C)CSSC[C@@H](C(N)=O)NC(=O)[C@H](CC(C)C)NC1=O` [UPAR-382, iHex-[Cys-Cit-Lys(DOTA)-Tyr-Phe-Pro-Pro-Ile-Leu-Cys]-NHz] ({Pentanoyl(4-Me)}-C[Cit]K(DOTA)YFPPILC-NH2; disulfide 1-10) gave a remaining at 6 h, 9.8 µM [1] of 78% and a remaining at 24 h, 10 µM [2] greater than 95%.
Molecule `CC[C@H](C)[C@@H]1NC(=O)[C@@H]2C[C@@H](O)CN2C(=O)[C@@H]2CCCN2C(=O)[C@H](Cc2ccccc2)NC(=O)[C@H](Cc2ccc(O)cc2)NC(=O)[C@H](CCC(N)=O)NC(=O)[C@H](CCCNC(N)=O)NC(=O)[C@@H](NC(=O)CCC(C)C)CSSC[C@@H](C(N)=O)NC(=O)[C@H](CC(C)C)NC1=O` [UPAR-174, iHex-[Cys-Cit-Gln-Tyr-Phe-Pro-Hyp-Ile-Leu-Cys]-NH2] ({Pentanoyl(4-Me)}-C[Cit]QYFP[Hyp]ILC-NH2; disulfide 1-10) has a remaining at 6 h, 9.8 µM [1] of 71% and a remaining at 24 h, 10 µM [2] of 90%.
For `CC[C@H](C)[C@@H]1NC(=O)[C@@H](C)NC(=O)[C@@H]2CCCN2C(=O)[C@H](Cc2ccccc2)NC(=O)[C@H](Cc2ccc(O)cc2)NC(=O)[C@H](CCC(N)=O)NC(=O)[C@H](CCCNC(N)=O)NC(=O)[C@@H](NC(=O)[C@H](CC(C)C)NC(=O)CN2CCN(CC(=O)O)CCN(CC(=O)O)CCN(CC(=O)O)CC2)CSSC[C@@H](C(N)=O)NC(=O)[C@H](CC(C)C)NC1=O` [UPAR-441, DOTA-Leu-[Cys-Cit-Gln-Tyr-Phe-Pro-ala-Ile-Leu-Cys]-NH2] ({DOTA}-LC[Cit]QYFP[dA]ILC-NH2; disulfide 2-11), the remaining at 6 h, 9.8 µM [1] was 83% and the remaining at 24 h, 10 µM [2] was 61%.
`CCCCOC(=O)N[C@H]1CSSC[C@@H](C(N)=O)NC(=O)[C@H](CCC)NC(=O)[C@H]([C@@H](C)CC)NC(=O)[C@@H]2C[C@@H](O)CN2C(=O)[C@@H]2C[C@H](F)CN2C(=O)[C@H](Cc2ccccc2)NC(=O)[C@H](Cc2ccc(C(N)=O)cc2)NC(=O)[C@H](CCCNC(=O)CN2CCN(CC(=O)O)CCN(CC(=O)O)CCN(CC(=O)O)CC2)NC(=O)[C@H]([C@@H](C)O)NC1=O` [UPAR-276, Butoc-[Cys-Thr-Orn(DOTA)-Pcnf-Phe-4Cfp-Hyp-Ile-Nva-Cys]-NHz] (Butoxycarbonyl-CT[Orn](DOTA)[Phe(4-CONH2)]F[Pro(cis-4-F)][Hyp]I[Nva]C-NH2; disulfide 1-10) gave a remaining at 6 h, 9.8 µM [3] greater than 95%, a remaining at 6 h, 9.8 µM [1] of 89% and a remaining at 24 h, 10 µM [2] of 88%.
